Reference: patent US9096504B2, “Controlled chemical release of hydrogen sulfide” (Washington State University, priority 2010, dated 2015)

How the values were obtained:
[1] = Methylene blue experiment for H2S release in PBS buffer in presence of cysteine or GSH; type: physicochemical; conditions: for GSH Peaking time / GSH [H2S] at peaking time / Cys Peaking time / Cys [H2S] at peaking time: PBS buffer pH 7.4, donor 150 μM; for GSH Peaking time / GSH [H2S] at peaking time: 1.5 mM GSH, experimental period 3 hours; for Cys Peaking time / Cys [H2S] at peaking time: 1.5 mM cysteine; for GSH Peaking time (min) / GSH [H2S] at peaking time (μM) / Cys Peaking time (min) / Cys [H2S] at peaking time (μM): footnote a: donors 40 μM and cysteine 4.0 mM
Procedure: Na2S Standard Curve for H2S Release
2.0 mM Na2S stock solution was prepared as described in previous section. Five aliquots of Na2S solution at 3.75 μL, 7.50 μL, 15.0 μL, 45.0 μL, and 112.5 μl were injected into the 4-mL vials containing H2O (1.0 mL), zinc acetate (1% w/v, 100 μL), N,N-dimethyl-1,4-phenylenediamine sulfate (200 μL, 20 mM) in 7.2 M HCl and ferric chloride (200 μL, 30 mM) in 1.2 M HCl, respectively. Stir the resultant solution for 15 minutes at room temperature. The absorbance (670 nm) of aliquots was determined using a UV-Vis spectrometer.
Cysteine stock solution in H2O (400 mM, 112.5 μL) and N-(benzoylthio)benzamide 2 stock solution in THF (40 mM, 112.5 μL) were added into PBS buffer solution (30 mL, pH=7.4) containing EDTA (50 mM, 60 μL), respectively. Every 3 minute, 1.0 mL of aliquots were taken to 4-mL vials containing, zinc acetate (1% w/v, 100 μL), N,N-dimethyl-1,4-phenylenediamine sulfate (200 μL, 20 mM) in 7.2 M HCl and ferric chloride (200 μL, 30 mM) in 1.2 M HCl within 3 hours. Then the absorbance (670 nm) was determined using a UV-Vis spectrometer.
The initial concentrations of H2S-donors shown below were 150 μM and the detection of H2S released from these molecules was measured in presence of 1.5 mM of cysteine or GSH, unless otherwise indicated.

[2] = H2S release measurement in plasma (colorimetry method); type: in vitro ADME, bovine/calf; conditions: plasma containing ~500 μM cysteine
Procedure: It is known that plasma contains significant amount of free cysteine. We therefore measured H2S generation of 2-13 in plasma (containing ˜500 μM cysteine) using a colorimetry method.
To 0.5 mL of bovine/calf plasma was added […] containing zinc acetate (1% w/v, 100 μL) and trichloroacetic acid (10% w/v, 600 μL). The mixture was allowed to centrifuge for 10 min (5000 g). The precipitate was filtered out and 1.2 mL of the clear solution was transferred into a 2-mL vial containing N,N-dimethyl-1,4-phenylenediamine sulfate (150 μL, 20 mM) in 7.2 M HCl and ferric chloride (150 μL, 30 mM) in 1.2 M HCl. […] The absorbance (670 nm) of aliquots of the resulting solution (1.5 mL) was determined using a UV-VIS spectrometer. The concentration of MB^+ was then converted to the concentration of H2S according to the reaction equation shown above and the calibration curve was generated by plotting the absorbance versus [H2S].
To 2.0 mL of bovine/calf plasma (containing cysteine […]) was added 2 mL water solution containing 5a (25 μl, of 80 mM in DMSO). […] Subsequently, N,N-dimethyl-p-phenylenediamine sulfate (20 mM, 150 μL) in 7.2 M HCl was added followed by FeCl3 (30 mM, 150 μL) in 1.2 M HCl, and absorbance (670 nm) of aliquots of the resulting solution (1.5 mL) was determined 20 minutes thereafter using a UV-Vis spectrometer.

[3] = system: mice subjected to ischemia followed by reperfusion; assay: Mouse model of ischemia followed by reperfusion (Elrod et al.); type: in vivo; conditions: compared to vehicle treated mice
Procedure: The effects of compound 2 have been tested using the mouse model of Elrod et al. (Proc. Natl. Acad. Sci. USA 2007, 104, 15560). Briefly, mice were subjected to ischemia followed by reperfusion. During reperfusion, compound 2 was administered to the mice.

SMILES | GSH [H2S] at peaking time [1] | Cys [H2S] at peaking time [1] | GSH Peaking time [1] | Cys Peaking time [1] | further results
Cc1ccccc1C(=O)NSC(=O)c1ccccc1 [Compound 24] | 130.5 µM | 146.9 µM | 30 min | 24 min | 
Cc1cccc(C(=O)SNC(=O)c2ccccc2)c1 [Compound 7] | 131.0 µM | 141.8 µM | 39 min | 28 min | 
CCC(=O)SNC(=O)c1ccccc1 [Compound 20] | 103.6 µM | 106.1 µM | 35 min | 28 min | 
COc1ccc(C(=O)SNC(=O)c2ccccc2)c(OC)c1 [Compound 12] |  |  |  |  | GSH Peaking time (min) [1]: 120 ^a min; GSH [H2S] at peaking time (μM) [1]: 13.2 ^a μM; Cys Peaking time (min) [1]: 50 ^a min; Cys [H2S] at peaking time (μM) [1]: 23.0 ^a μM
CC(C(=O)SNC(=O)c1ccccc1)c1ccccc1 (stereo not drawn) [Compound 31] | 103.8 µM | 130.4 µM | 52 min | 36 min | 
CN(C)c1ccc(C(=O)SNC(=O)c2ccccc2)cc1 [Compound 13] |  |  |  |  | GSH Peaking time (min) [1]: 30 ^a min; GSH [H2S] at peaking time (μM) [1]: 15.0 ^a μM; Cys Peaking time (min) [1]: 22 ^a min; Cys [H2S] at peaking time (μM) [1]: 17.5 ^a μM
O=C(NSC(=O)C1CCCC1)c1ccccc1 [Compound 17] | 110.9 µM | 100.6 µM | 32 min | 18 min | 
CC(=O)SNC(=O)c1ccccc1 [Compound 19] | 116.1 µM | 132.6 µM | 18 min | 12 min | 
O=C(Cc1ccccc1)SNC(=O)c1ccccc1 [Compound 30] | 104.9 µM | 108.6 µM | 44 min | 30 min | 
CCC(=O)NSC(=O)c1ccccc1 [Compound 28] | 116.6 µM | 120.9 µM | 50 min | 34 min | 
O=C(NSC(=O)c1ccccc1)c1ccccc1 [Compound 2, N-(benzoylthio)benzamide] | 140.4 µM | 143.6 µM | 39 min | 24 min | H2S generation in plasma [2]: time-dependent H2S release; reduction in infarct size per area-at-risk (INF/AAR) ([3]; 100 μg/kg bolus during reperfusion, maximal): 40%; infarct size per area-at-risk (INF/AAR), dose dependence ([3]; administered during reperfusion): dose-dependent reduction
O=C(NSC(=O)c1ccc(C(F)(F)F)cc1)c1ccccc1 [Compound 4] | 59.5 µM | 110.0 µM | 27 min | 26 min | 
O=C(NSC(=O)c1ccccc1)c1cccc(Cl)c1 [Compound 25] | 84.3 µM | 83.6 µM | 27 min | 26 min | 
Cc1ccc(C(=O)SNC(=O)c2ccccc2)cc1 [Compound 8] | 100.3 µM | 93.9 µM | 30 min | 27 min | 
CCCC(=O)NSC(=O)c1ccccc1 [Compound 29] | 98.9 µM | 102.8 µM | 39 min | 30 min | 
COc1cccc(C(=O)SNC(=O)c2ccccc2)c1 [Compound 10] | 133.6 µM | 111.6 µM | 20 min | 25 min | 
O=C(NSC(=O)c1ccccc1)Nc1ccccc1 | 23.4 µM | 33.9 µM | 30 min | 15 min | 
O=C(NSC(=O)c1ccccc1)c1ccc(F)cc1 [Compound 26] | 104.1 µM | 110.6 µM | 42 min | 34 min | 
COC(=O)C(CSSC(=O)c1ccccc1)NC(=O)c1ccccc1 (stereo not drawn) [Compound 33] | 18.3 µM | 25.8 µM | 45 min | 35 min | 

More lines, main results first:

GSH [H2S] at peaking time [1] | Cys [H2S] at peaking time [1] | SMILES | GSH Peaking time [1] | Cys Peaking time [1] | further results
122.6 µM | 143.1 µM | O=C(NSC(=O)c1ccc(F)cc1)c1ccccc1 [Compound 3] | 36 min | 18 min | 
 | 45.6 µM | O=C(NSC(=O)C(c1ccccc1)c1ccccc1)c1ccccc1 [Compound 32] |  | 60 min | 
149.6 µM | 145.4 µM | CC(=O)NSC(=O)c1ccccc1 [Compound 27] | 39 min | 30 min | 
61.9 µM | 85.0 µM | Cc1ccccc1C(=O)SNC(=O)c1ccccc1 [Compound 6] | 45 min | 34 min | 
81.9 µM | 72.4 µM | O=C(NSC(=O)C1CCCCC1)c1ccccc1 [Compound 16] | 36 min | 18 min | 
137 µM | 149 µM | CC(=O)NC(C(=O)NCc1ccccc1)C(C)(C)SSC(=O)c1ccccc1 (stereo not drawn) [Compound 34] | 39 min | 33 min | melting point: 143 to 145 °C
146.5 µM | 142.1 µM | O=C(NSC(=O)c1cccc(Cl)c1)c1ccccc1 [Compound 5] | 36 min | 24 min | 
101.1 µM | 131.6 µM | CC(C)C(=O)SNC(=O)c1ccccc1 [Compound 18] | 52 min | 36 min | 
122.3 µM | 111.3 µM | CCCC(=O)SNC(=O)c1ccccc1 [Compound 22] | 40 min | 39 min | 
100.5 µM | 92.4 µM | COc1ccc(C(=O)SNC(=O)c2ccccc2)cc1 [Compound 11] | 40 min | 27 min | 
48.3 µM | 52.8 µM | COc1ccccc1C(=O)SNC(=O)c1ccccc1 [Compound 9] | 48 min | 36 min | 
96.6 µM | 106.4 µM | CC(C)(C)C(=O)SNC(=O)c1ccccc1 [Compound 21] | 90 min | 55 min | 
